Earlier results in patent US20250228771A1, “ALKALINE INTRAORAL PRODUCTS” (priority 2022, published 2025).

Conditions: Tomar S. L. et al., Tobacco Control 1997

SMILES: CN1CCCC1c1cccnc1 (stereo not shown) [nicotine]
- lower pKa: about 3.2
